{"source": "patent US5416070A", "about": "“Composition for macrophage activation” (ImmunoTherapeutics, Inc., priority 1990, dated 1995)", "key": {"Balb/c mice": {"test_system": "Balb/c mice", "assay": "Adjuvant activity on antibody producing cells: plaque forming units per spleen after SRBC immunization", "assay_type": "in vivo", "description": "The efficacy of the compound of the invention in inducing antibody response was evaluated in an immuno-compromised model using aged Balb/c mice and in normal mice using a suboptimal dose of the immunogen.\n[…] The spleen was removed on day 4 and assayed for plaque forming units.\nThe results (Table 1) indicated a total of 66×10^3 plaque forming units (PFU) per spleen for controls, 198×10^3 PFU per spleen for mice receiving SRBC mixed with 0.1 mg MDP and 442×10^3 PFU for mice receiving SRBC mixed with 0.1 mg. of a compound of the invention IIA. Similarly, young Balb/c mice were immunized intraperitoneally with a suboptimal dose of SRBC (1×10^7 cells) in saline or mixed with 0.01 of 0.1 mg of MDP or IIA."}, "Meth A sarcoma": {"test_system": "Meth A sarcoma", "assay": "Antitumor activity in saline in the Meth A sarcoma", "assay_type": "in vivo, mice", "description": "BALB/C female mice, age 7 weeks, were injected subcutaneously with 1×10^6 Meth A tumor cells. Eight days later the animals were treated intravenously with either saline (control) or Compound IIA at a dose of 1, 10, or 100 micrograms (μg). Each group consisted of 4 animals. Tumor measurements were taken every 2 days for 10 days and the mice followed for 60 days until cured or death due to tumor occurred."}, "[1]": {"test_system": "human peripheral blood monocytes", "assay": "Activation of human peripheral blood monocytes to the tumoricidal state (I125 labeled A-375 tumor cells)", "assay_type": "cell-based", "details": "effector:target 10:1, A-375 tumor cells, 72 hours", "description": "Monocyte tumoricidal activity was determined by the method of Fogler and Fidler (W. E. Fogler and I. J. Fidler, J. Immunol., 136; 2311-2317, 1986). Briefly, human peripheral blood monocytes were isolated by gradient centrifugation on 46% Percoll. Monocytes were then cultured in suspension for 18 hours in RPMI 1640 media containing 5% human sera with or without 1.0 μg/ml of Compound IIA at 1×10^6 monocytes/ml. After incubation monocytes were washed, and 1×10^5 or 5×10^4monocytes allowed to attach to wells of a 96-well microplate for 1 hour, then the plate was washed to remove non-adherent cells; to this, 1×10^4 I^125 labeled A-375 tumor cells were added. Monocytes were cultured with tumor cells for 72 hours. At the end of the 72 hour co-culture period, the plates were washed to remove non-adherent-non-viable tumor cells and the remaining adherent viable I^125 labeled tumor cells determined by lysing the cells with sodium dodecyl sulfate and counting radioactivity in a Gamma Counter.\nActivation of human peripheral blood monocytes by liposomes consisting of PC and PG (7:3) containing Compound IIA was determined as described above.\nThe effector:target cell ratio was 10:1. The cultures contained a final concentration of 1.0 μg/ml of MDP, Compound IIA or Compound IIA in liposomes."}, "[2]": {"test_system": "human peripheral blood monocytes", "assay": "Activation of monocytes in vitro measured by production of tumor necrosis factor (ELISA)", "assay_type": "cell-based", "details": "for TNF (pg/ml) at given Concentration of Compound: 24 Hours", "description": "(§1) Human peripheral blood monocytes were isolated by density gradient centrifugation as noted in Example 13. The cell number was adjusted to 5×10^5 cells per ml in RPM 1640 media containing 5% human AB negative serum. One ml containing 5×10^5 cells were placed in individual wells of a 24-well Plastek tissue culture plate. Various drugs in a volume of 0.5 ml were added at time zero. The cells were incubated at 37° C. in a 5% CO2 atmosphere. Aliquots (0.1 ml) of the supernatant were removed at 24 hours and frozen at -80° C. These samples were subsequently assayed for tumor necrosis factor (TNF) activity using a commercially available ELISA Assay from T-Cell Sciences (Cambridge, Mass.).\nHuman peripheral blood monocytes were isolated by density gradient centrifugation as described in Example 13. The cells were plated in 24-well microliter plates as described in Example 33. The compounds Were prepared in liposomes as described in Example 10, and assayed for TNF production, as described in Example 33. The results are set forth in Table 5, and show significant levels of TNF compared to controls.\nas §1, with “of” for “of a”, “zero. The compounds were also formulated in liposomes as described in Example 10, and added in a volume of 0.5 ml to individual wells of a 24-well Plastek tissue culture plate.” for “zero.”, “-20°” for “-80°”, “TNF as described in Example 33 and Interleukin-1-beta (IL-1β)” for “tumor necrosis factor (TNF) activity”, “kit” for “Assay”, “Cistron (Pine Brook, N.J.).” for “T-Cell Sciences (Cambridge, Mass.).”"}, "[3]": {"test_system": "Human peripheral blood mononuclear cells", "assay": "Activation of monocytes in vitro measured by in vitro tumor cell cytotoxicity", "assay_type": "cell-based", "description": "Human peripheral blood mononuclear cells were isolated by density gradient centrifugation on 46% Percoll. 1×10^5 of the mononuclear cells were plated onto Falcon microliter plates and allowed to adhere for two hours. The non-adherent cells were removed and fresh media added. The cells were allowed to incubate for 24 hours after which various concentrations of the drug either alone or incorporated in liposomes was added. After 24 hours, the plates were washed and 1×10^4 I^125 labelled target cells were added. Following an additional 72 hours of coincubation, the plates were washed and the residual radioactivity determined. The specific cytotoxicity was calculated from the formula: [formula] The results of cytotoxicity assay of various compounds alone or incorporated in liposomes at various concentrations is given in Table 6."}}, "data": [{"molecule": "CCCCCCCCCCCCCCCC(=O)OCC(COC(=O)C(C)NC(=O)CCC(NC(=O)C(C)NC(=O)C(C)OC1C(NC(C)=O)C(O)OC(CO)C1OC1OC(CO)C(O)C(O)C1NC(C)=O)C(N)=O)OC(=O)CCCCCCCCCCCCCCC", "note": "[Compound IIA, 4-O-[2-acetamido-2-deoxy-β-D-glucopyranosyl]-2-acetamido-2-deoxy-3-O-[D-2-propanoyl-L-alanyl-D-isoglutaminyl-L-alanyl-1,2-dipalmitoyl-sn-glycerol]-D-glucopyranose]", "values": [{"measurement": "PFU ×10^3", "setting": "Balb/c mice; 3 months old mice, SRBC inoculum 1 × 10^7 i.p., 0.01 mg/mouse", "result": "184 ×10^3"}, {"measurement": "PFU ×10^3", "setting": "Balb/c mice; 3 months old mice, SRBC inoculum 1 × 10^7 i.p., 0.1 mg/mouse", "result": "468 ×10^3"}, {"measurement": "PFU ×10^3", "setting": "Balb/c mice; 18 months old mice, SRBC inoculum 1 × 10^8 i.p., 0.1 mg/mouse, spleen day 4", "result": "442 ×10^3"}, {"measurement": "plaque forming units (PFU) per spleen", "setting": "Balb/c mice; aged Balb/c mice (18 months), SRBC mixed with 0.1 mg", "result": "442×10^3 PFU per spleen"}, {"measurement": "animals exhibiting complete regression of tumor", "setting": "Meth A sarcoma; 100 μg i.v.", "result": "one of four"}, {"measurement": "decrease in tumor growth", "setting": "Meth A sarcoma; day 6 after therapy, single i.v. dose of 100 μg", "result": 50, "unit": "%"}, {"measurement": "PERCENT CYTOTOXICITY", "setting": "[1]; Experiment 1, 1.0 μg/ml", "result": 59, "unit": "%"}, {"measurement": "PERCENT CYTOTOXICITY", "setting": "[1]; Experiment 2, 1.0 μg/ml", "result": 37, "unit": "%"}, {"measurement": "TNF Level", "setting": "[2]; Experiment 1, free drug in saline 0.1 μg/ml, 24 hours", "result": 1760, "unit": "pg/mL"}, {"measurement": "TNF Level", "setting": "[2]; Experiment 1, free drug in saline 1.0 μg/ml, 24 hours", "result": 1600, "unit": "pg/mL"}, {"measurement": "TNF Level", "setting": "[2]; Experiment 1, free drug in saline 10.0 μg/ml, 24 hours", "result": 4550, "unit": "pg/mL"}, {"measurement": "TNF Level", "setting": "[2]; Experiment 2, free drug in saline 0.1 μg/ml, 24 hours", "result": 1450, "unit": "pg/mL"}, {"measurement": "TNF Level", "setting": "[2]; Experiment 2, free drug in saline 1.0 μg/ml, 24 hours", "result": 1580, "unit": "pg/mL"}, {"measurement": "TNF Level", "setting": "[2]; Experiment 2, free drug in saline 10.0 μg/ml, 24 hours", "result": 1630, "unit": "pg/mL"}, {"measurement": "TNF Level", "setting": "[2]; Experiment 3, free drug in saline 0.1 μg/ml, 24 hours", "result": 1450, "unit": "pg/mL"}, {"measurement": "TNF Level", "setting": "[2]; Experiment 3, free drug in saline 1.0 μg/ml, 24 hours", "result": 1650, "unit": "pg/mL"}, {"measurement": "TNF Level", "setting": "[2]; Experiment 3, free drug in saline 10.0 μg/ml, 24 hours", "result": 1800, "unit": "pg/mL"}, {"measurement": "TNF Level", "setting": "[2]; Table 5, compound incorporated in liposomes, 0.1 μg/ml", "result": 1270, "unit": "pg/mL"}, {"measurement": "TNF Level", "setting": "[2]; Table 5, compound incorporated in liposomes, 1.0 μg/ml", "result": 850, "unit": "pg/mL"}, {"measurement": "TNF Level", "setting": "[2]; Table 5, compound incorporated in liposomes, 10.0 μg/ml", "result": 1050, "unit": "pg/mL"}, {"measurement": "TNF (pg/ml) at given Concentration of Compound", "setting": "[2]; Table 7, Experiment 1, 0.01 μg/ml", "result": 650, "unit": "pg/mL"}, {"measurement": "TNF (pg/ml) at given Concentration of Compound", "setting": "[2]; Table 7, Experiment 1, 0.1 μg/ml", "result": 460, "unit": "pg/mL"}, {"measurement": "TNF (pg/ml) at given Concentration of Compound", "setting": "[2]; Table 7, Experiment 1, 1.0 μg/ml", "result": 620, "unit": "pg/mL"}, {"measurement": "TNF (pg/ml) at given Concentration of Compound", "setting": "[2]; Table 7, Experiment 1, 10.0 μg/ml", "result": 500, "unit": "pg/mL"}, {"measurement": "TNF (pg/ml) at given Concentration of Compound", "setting": "[2]; Table 9, Experiment 2, 0.1 μg/ml", "result": 1400, "unit": "pg/mL"}, {"measurement": "TNF (pg/ml) at given Concentration of Compound", "setting": "[2]; Table 9, Experiment 2, 1.0 μg/ml", "result": 1700, "unit": "pg/mL"}, {"measurement": "TNF (pg/ml) at given Concentration of Compound", "setting": "[2]; Table 9, Experiment 2, 10.0 μg/ml", "result": 1070, "unit": "pg/mL"}, {"measurement": "Cytotoxicity", "setting": "[3]; PC/PS liposomes (7:3), 0.1 μg/ml", "result": 1.0, "unit": "%"}, {"measurement": "Cytotoxicity", "setting": "[3]; PC/PS liposomes (7:3), 1.0 μg/ml", "result": 8.0, "unit": "%"}, {"measurement": "Cytotoxicity", "setting": "[3]; PC/PS liposomes (7:3), 10.0 μg/ml", "result": 12.0, "unit": "%"}, {"measurement": "Cytotoxicity", "setting": "[3]; no formulation given (drug alone), 0.1 μg/ml", "result": 5.0, "unit": "%"}, {"measurement": "Cytotoxicity", "setting": "[3]; no formulation given (drug alone), 1.0 μg/ml", "result": 4.0, "unit": "%"}, {"measurement": "Cytotoxicity", "setting": "[3]; no formulation given (drug alone), 10.0 μg/ml", "result": 3.0, "unit": "%"}]}]}
